From publication PMC7343282, “Tissue Distribution of Several Series of Cationic Surfactants in Rainbow Trout (Oncorhynchus mykiss) Following Exposure via Water” (Environmental Science & Technology, 2020)

How the values were obtained:
[1] = system: rainbow trout (Oncorhynchus mykiss); assay: Tissue concentrations in rainbow trout after 7 d exposure via water (two mixtures); type: in vivo
Method: (§1) The study was conducted with rainbow trout (Oncorhynchus mykiss) weighing between 98 and 165 g. The fish were purchased from Nordic trout Sweden AB and held in the aquaria facility prior to the experiment in February 2018. Ethical approval for the experiments was obtained from Stockholms djurförsöksetiska nämnd (decision 9967-2017). The experiments were conducted in 300 L fiberglass aquaria with a water renewal rate of 1.3 L min^–1 (MIX 1) and 1.45 L min^–1 (MIX 2). The water temperature was 10 °C and the pH 7.5. The water hardness was estimated to be 1.1 mM Ca^2+ based on information from the water supplier. The aquaria water was circulated through a filter of polyester wool at 800–1200 L h^–1 with an Eheim 2273 Pro 4+ pump. The outflow from the filter pump was placed above the water surface, providing for aeration. The lighting was dim and programmed on a 12 h light/12 h dark cycle. The fish were fed fish food pellets supplied by the fish farm at 1.0% of their body weight per day.
(§2) A solution of the test chemical mixture in methanol was infused continuously (3.5 and 3.8 μL min^–1 for MIX 1 and MIX 2, respectively) into the water inflow using a syringe pump. The intended concentrations of the chemicals in water ranged from 2.5 to 50 μg L^–1 (Table 1). They were selected with the help of modeled estimates of the BCF that were based on reported and extrapolated membrane water partition coefficients[7] and biotransformation rate constants predicted with quantitative structure activity relationships (QSARs)[24],[25] to parameterize the BIONIC model.[26] Based on these estimates, we selected an exposure concentration which would result in concentrations in fish that were clearly above the limit of quantification (LOQ) of the analytical method, while trying to keep the quantifiable exposure concentration as low as possible to minimize the risk of toxic effects and micelle formation (see comparison of intended concentrations with available toxicological data in Table S4).
(§3) The surface of the fish posterior of the gills was rinsed with 100% methanol to remove test chemical residues adsorbed to the outer surface of the skin and absorbed in the skin mucus. […] The fish were dissected and the liver, the kidney, the gills, and the remaining contents of the abdominal cavity were taken and weighed. Skin and muscle samples were prepared from the upper dorsal region on semi-frozen fish after the methanol rinse had removed the mucus. The main part of the subcutaneous fat tissue was included in the muscle samples rather than in the skin samples. All samples were stored frozen at −20 °C until further analysis.
(§4) For 6 fish from each aquarium and 3 control fish, samples of muscle, skin, liver, and gills were homogenized in a bullet blender (muscle and liver) (MiniG, SPEXsamplePrep) or in a cryo-mill (skin and gill) (Mixer mill cryomill, Retsch GmbH). A sub-sample of 0.5–1.2 g of the homogenate was extracted twice in methanol (4 mL, 50 °C, ultra-sound, 60 min), employing centrifugation at 4000 rpm for phase separation. Further information on the extraction efficiency of this method can be found in the Supporting Information (Table S5 and accompanying text). Isotope labeled standards of Q10 (D21), Q14 (D29), and P16 (D33) were added to a portion of the extract corresponding to 12–75 mg of the sample. The extract volume was adjusted to 3 mL with methanol and then cleaned up on a weak cationic exchange SPE column (WCX, 60 mg, 30 μm particle size, waters). Solvent elution was performed by gravity flow. The column was conditioned with 2 mL of methanol, followed by 2 mL of Milli-Q water adjusted to pH 7 with ammonium hydroxide to activate the ion exchange. The sample extract was loaded onto the column, and it was subsequently rinsed with 20 mL of methanol.

[2] = as above; type: in vivo, Oncorhynchus mykiss; conditions: rainbow trout (Oncorhynchus mykiss), in vivo
Method: as §1, §2, §3, §4

[3] = system: rainbow trout (Oncorhynchus mykiss); assay: Apparent bioconcentration factor at end of 7-day exposure; type: in vivo; conditions: end of 7-day exposure, body burden including mucus
Method: Apparent BCFs (BCFapp) at the end of the 7-day exposure were calculated by dividing the surfactant body burden (including mucus) by the fish mass, and dividing this by the average measured concentration in water samples taken during the exposure phase. The BCFapp values ranged from 0.1 to 1260 (Table S18). Given the short exposure period, it is possible that the fish in this study had not approached steady state, in particular with respect to the distribution between water and internal tissues and between water and skin, and that the steady-state BCFs are higher. […] We note that some improvements in the methodology would be helpful, particularly with respect to the stability of the aqueous exposure concentration of the longest chain surfactants. Working with mixtures of analogue cationic surfactants allowed for consistent evaluation of differences in accumulation trends due to structural features.

[4] = system: rainbow trout (Oncorhynchus mykiss); assay: Surface area-normalized mucus-water and gill-water distribution coefficients; conditions: for Gill-water distribution coefficient (DG-W): from average concentrations in gills and water, calculated gill surface; for Mucus-water distribution coefficient (DMuc-W): from average concentrations in mucus and water
Method: For each mixture, the syringe pump was started in an aquarium containing no fish. After 16 h, to allow the concentrations to stabilize, 12 rainbow trout were added. After 7 d of exposure, the fish in the exposure aquaria as well as several unexposed (control) fish were sacrificed. Following stunning, blood was collected with a heparinized syringe from the caudal vein into a 2 mL Eppendorf tube. The fish were weighed and photographed, and the length was measured. The outer surface area of the fish was estimated from the fish weight according to O’Shea et al.[27] [drawing 1] 1
The gill surface area was estimated from the fish weight according to the equation specific for O. mykiss from a report by Hughes,[28] taken from ref ([29]) [drawing 2] 2
Because the mass of extracted mucus was not determined, the concentrations in mucus were normalized to the estimated fish’s total surface area (eq 1) excluding the head, which was not rinsed.
Surface area-normalized gill–water distribution coefficients (DG–W) were calculated from the average concentrations measured in gills and water, and a calculated gill surface based on rainbow trout specific scaling factors (eq 2). […] Unlike the skin, the gills were not rinsed with methanol, so the gill samples included gill mucus.

[5] = Membrane-water partition/distribution coefficient; conditions: extrapolated from data of Timmer and Droge (2017)
[6] = Table S2; cited from earlier work
[7] = rainbow trout (Oncorhynchus mykiss), in vivo, 7 d
[8] = rainbow trout (Oncorhynchus mykiss), in vivo, 7 d, pH 7.5
[9] = mean of exposed fish, Table S13
[10] = mean of exposed fish, Table S14
[11] = wet weight, mean of six fish (RSD %), 7 d exposure, Q10, Q14 below LOQ

What does the source list for `CCCCCCCCCCCCCN` [P13, tridecylamine]?
Concentration in gills [1, 7]: 17 800 (12) ng g^–1; Concentration in liver [1, 7]: 50 000 (26) ng g^–1; Concentration in skin [1, 7]: 2400 (19) ng g^–1; Concentration in blood [1, 8]: 540 (12) ng g^–1; Concentration in muscle [1, 8]: 530 (16) ng g^–1; Concentration in skin, per surface area [1, 8]: 195 ng cm-2; concentration at 7 d ([2]; Concentration in skin): 2160 ng/g; concentration at 7 d ([2]; pH 7.5, Concentration in blood): 495 ng/g; concentration at 7 d ([2]; pH 7.5, Concentration in gills): 16000 ng/g; concentration at 7 d ([2]; pH 7.5, Concentration in muscle): 451 ng/g; concentration at 7 d ([2]; pH 7.5, Concentration in skin): 2040 ng/g; Apparent bioconcentration factor (BCFapp) [3]: 490 L kg-1 wet weight; Gill-water distribution coefficient (DG-W) [4]: 62 mLcm-2; Mucus-water distribution coefficient (DMuc-W) [4]: 25 mL cm-2; Log KMW,C (membrane-water partition coefficient of the charged form), extrapolated [5]: 6.16; pKa [6]: 10.5

Which results are given for `CCCCCCCCCCCCCN(C)C` [T13, N,N-dimethyltridecylamine]?
Concentration in blood ([1]; exposed fish #1): 890 ng/g; Concentration in gills ([1]; exposed fish #1): 9077 ng/g; Concentration in gills, surface area-normalized ([1]; exposed fish #1): 140 ng cm-2; Concentration in liver ([1]; exposed fish #1): 6570 ng/g; Concentration in mucus ([1]; exposed fish #1): 57 ng cm-2; Concentration in muscle ([1]; exposed fish #1): 580 ng/g; Concentration in skin ([1]; exposed fish #1): 1879 ng/g; Concentration in skin, per surface area ([1]; exposed fish #1): 89 ng cm-2; Concentration in blood ([1]; exposed fish #2): 816 ng/g; Concentration in gills ([1]; exposed fish #2): 9391 ng/g; Concentration in gills, surface area-normalized ([1]; exposed fish #2): 150 ng cm-2; Concentration in liver ([1]; exposed fish #2): 8202 ng/g; Concentration in mucus ([1]; exposed fish #2): 59 ng cm-2; Concentration in muscle ([1]; exposed fish #2): 593 ng/g; Concentration in skin ([1]; exposed fish #2): 1877 ng/g; Concentration in skin, per surface area ([1]; exposed fish #2): 160 ng cm-2; Concentration in blood ([1]; exposed fish #3): 1018 ng/g; Concentration in liver ([1]; exposed fish #3): 13696 ng/g; Concentration in mucus ([1]; exposed fish #3): 52 ng cm-2; Concentration in muscle ([1]; exposed fish #3): 601 ng/g; Concentration in skin ([1]; exposed fish #3): 2115 ng/g; Concentration in skin, per surface area ([1]; exposed fish #3): 150 ng cm-2; Concentration in blood ([1]; exposed fish #4): 858 ng/g; Concentration in gills ([1]; exposed fish #4): 9586 ng/g; Concentration in gills, surface area-normalized ([1]; exposed fish #4): 178 ng cm-2; Concentration in liver ([1]; exposed fish #4): 20532 ng/g; Concentration in mucus ([1]; exposed fish #4): 63 ng cm-2; Concentration in muscle ([1]; exposed fish #4): 882 ng/g; Concentration in skin ([1]; exposed fish #4): 2718 ng/g; Concentration in skin, per surface area ([1]; exposed fish #4): 154 ng cm-2; Concentration in blood ([1]; exposed fish #5): 795 ng/g; Concentration in gills ([1]; exposed fish #5): 11785 ng/g; Concentration in gills, surface area-normalized ([1]; exposed fish #5): 209 ng cm-2; Concentration in liver ([1]; exposed fish #5): 12097 ng/g; Concentration in mucus ([1]; exposed fish #5): 70 ng cm-2; Concentration in muscle ([1]; exposed fish #5): 767 ng/g; Concentration in skin ([1]; exposed fish #5): 1738 ng/g; Concentration in skin, per surface area ([1]; exposed fish #5): 154 ng cm-2; Concentration in blood ([1]; exposed fish #6): 1205 ng/g; Concentration in gills ([1]; exposed fish #6): 11130 ng/g; Concentration in gills, surface area-normalized ([1]; exposed fish #6): 148 ng cm-2; Concentration in liver ([1]; exposed fish #6): 9499 ng/g; Concentration in mucus ([1]; exposed fish #6): 70 ng cm-2; Concentration in muscle ([1]; exposed fish #6): 606 ng/g; Concentration in skin ([1]; exposed fish #6): 2209 ng/g; Concentration in skin, per surface area ([1]; exposed fish #6): 162 ng cm-2; Concentration in blood ([1]; mean of exposed fish, Table S10): 930 ng/g; Concentration in muscle ([1]; mean of exposed fish, Table S11): 672 ng/g; Concentration in liver ([1]; mean of exposed fish, Table S12): 11766 ng/g; Concentration in gills [1, 9]: 10194 ng/g; Concentration in gills, surface area-normalized [1, 9]: 165 ng cm-2; Concentration in skin [1, 10]: 2089 ng/g; Concentration in skin, per surface area [1, 10]: 145 ng cm-2; Concentration in mucus ([1]; mean of exposed fish, Table S15): 62 ng cm-2; Concentration in mucus ([1]; methanol rinse normalized to fish surface area, mean of six fish (RSD %)): 62 (9) ng cm^–2; Concentration in blood ([1]; wet weight, mean of six fish (RSD % in brackets), 7 d exposure, Q10 below LOQ): 930 (17) ng g^–1; Concentration in muscle [1, 11]: 670 (19) ng g^–1; Concentration in skin [1, 11]: 2100 (17) ng g^–1; Apparent bioconcentration factor (BCFapp) [3]: 510 L kg-1 wet weight; Gill-water distribution coefficient (DG-W) [4]: 58 mLcm-2; Mucus-water distribution coefficient (DMuc-W) [4]: 22 mL cm-2; Log KMW,C (membrane-water partition coefficient of the charged form), extrapolated [5]: 5.88; pKa [6]: 9.5
